In one experiment the test system is IL-6. Kind of experiment: Serum cytokine induction after NC-CpG or free CpG inoculation (ELISA). The class given is in vivo. The note with it: s.c.; 100 μg NC-CpG (containing 5% CpG-1826) or 5 μg free CpG-1826; pooled sera, 3/group; FIG. 4. The procedure:
(§1) TNF-α and IL-6 were induced in sera of NC-CpG- and free CpG-inoculated animals. Animal groups were inoculated (s.c.) either with 100 μg of NC-CpG (containing 5% CpG-1826) or with 5 μg of free CpG-1826. At different time-points post inoculation serum was collected from the animals (3/group) by terminal bleed, pooled and assayed for cytokine presence in ELISA (BD).
On the technique in general: An ELISA detects its analyte on a solid surface through an enzyme-linked reagent.

For another experiment, the system named is TNF-α. The description is as above. The class given is in vivo. The note with it: s.c.; 100 μg NC-CpG (containing 5% CpG-1826) or 5 μg free CpG-1826; pooled sera, 3/group; FIG. 4. The procedure:
as §1

This note sets out measurements from patent US20150374815A1, “METHODS AND COMPOSITIONS FOR TREATMENT WITH SYNTHETIC NANOCARRIERS AND IMMUNE CHECKPOINT INHIBITORS” (Selecta Biosciences, Inc., priority 2014, published 2015).

Entries after “also recorded” stand apart in the source; their conditions may differ.

As for “5′-TCCATGACGTTCCTGACGTT-3′ [free CpG]”, in the experiment with IL-6, the “induction of IL-6 in serum” value was “induced; also recorded: substantially higher induction”. In the experiment on TNF-α, the “induction of TNF-α in serum” value is on record as “induced; also recorded: substantially higher induction”.
